Source: patent US20140315972A1, “RS)-2-(2-oxo-4-phenylpyrrolidin-1-yl)acetamide compound having modulatory activity with a commensurate effect, pharmaceutical substance (variants) and its application, composition (variants) thereof” (priority 2011, published 2014)
Where “and” joins values, the source holds several entries; their conditions need not be identical. Identical values can stand only once. Marks after values point to notes of the source that are not given here.

What was measured:
[1] = test system: mycobacteria (MTB), strain H37Rv; experiment: Mycobacteria (MTB) culture growth in vitro; format: cell-based
Description: The presence of the proper anti-inflammatory effect in Phenotropil formed the basis for investigation of the effect of the drug on more complex pathological agents. The effect of different concentrations of Phenotropil on the mycobacteria (MTB) culture growth in vitro according to research standards (test culture—highly virulent laboratory strain H37Rv) was studied. A wide range of drug concentrations was prepared: 1 series—100, 50, 10 μg/ml, 2 series—from 10 to 0.31 μg/ml, and 3 series—from 2 to 0.031 μg/ml. To prepare the matrix solution, the sterile distilled water was used, and the Shkolnikova medium was used to prepare the said concentrations. To assess the growth and morphological properties of the MTB culture, suspended mycobacteria at appropriate concentrations of Phenotropil solution were inoculated on the Lowenstein-Jensen medium and Shkolnikova medium (4 tubes for each point). After 2 weeks, the presence of growth was determined visually in the Shkolnikova medium and smears from the sediment were prepared. The smears were fixed and stained according to Ziehl-Neelsen method. The number of mycobacteria in smears was counted and, based on the results obtained, the concentration of the drug at which the inhibition of the growth was observed was determined. The number of the MTB colonies and their morphological characteristics were evaluated on the Lowenstein-Jensen medium after four weeks from the time of inoculation. Registration of the results was also carried out four weeks after inoculation.

[2] = test system: mice; experiment: Benzedrine-induced stimulation of orientation-locomotor activity; format: in vivo
From the text: In regard to influencing the effects of Benzedrine, Phenotropil also can provide, depending on the dose, the diametrically opposite activity when in combination with psychostimulants. This fact must be taken into account in combined use of various pharmacological agents.

[3] = test system: MDA (malondialdehyde); experiment: Plasma TBA-MDA under negative stress (Ns, Ds); format: in vivo, rats; conditions: for km % vs experimental control (saline): Ds seven days + 200 mg/kg, listed as Phenotropil
[4] = test system: cAMP; experiment: cAMP level in blood plasma of mice; format: in vivo; conditions: for increase of cAMP level: mice, 60 minutes before test; for cAMP level: mouse blood plasma, one hour after a single injection
[5] = test system: rats; experiment: Alcohol dependence and abstinence, free choice of water and alcohol; format: in vivo
From the text: The antitoxic, sobering and anticraving, activity, as well as the effect of Phenotropil in abstinence was studied on white outbred male rats (weighing 180-220 g) and male mice (weighing 18-24 g) in chronic alcoholism. […] Alcoholized rats after four months of alcoholism and treatment with Phenotropilom voluntarily give up intake of alcohol (anticraving activity) with free choice of water and alcohol (Table 11).

[6] = test system: GABAA benzodiazepine (BDZ) receptors (cortex); experiment: Receptor binding ex vivo on rat brain membrane preparations; conditions: 100 mg/kg single dose during scopolamine amnesia
Description: (§1) Studying the mechanisms of action of the preventive and curative effect of Phenotropil (100 mg/kg) with single and subchronic administration (for 7 days) in terms of receptor binding to dopamine (D1, D2, D3 in the striatum), serotonin (5-HT2—frontal cortex) glutamate (NMDA in the hippocampus), the GABAA benzodiazepine (BDZ—cortex) and acetylcholine (nACh—cortex) receptors was performed on membrane preparations isolated from various competent rat brain structures. The methods are well known and described. Baseline studies in normal state and during the anticholinergic scopolamine induced CRPA amnesia served as the comparison groups (Table 7.4 and 7.5).

[7] = test system: glutamate NMDA receptors (hippocampus); experiment: as above
Description: as §1

[8] = test system: acetylcholine nACh receptors (cortex); experiment: as above
Description: as §1

[9] = test system: serotonin 5-HT2 receptors (frontal cortex); experiment: as above
Description: as §1

[10] = mice, Benzedrine 3 mg/kg + Phenotropil 50.0 mg/kg
[11] = mice, Benzedrine 3 mg/kg + Phenotropil 100.0 mg/kg
[12] = mice, Benzedrine 3 mg/kg + Phenotropil 300.0 mg/kg
[13] = mice, doses of 50 and 100 mg/kg (so in the source)
[14] = August rats, single Ns-exposure + 200 mg/kg
[15] = Wistar rats, single Ns-exposure + 200 mg/kg
[16] = abstinent rats, 7-month alcoholism, 200 mg/kg, day 3
[17] = abstinent rats, 7-month alcoholism, 200 mg/kg, day 4
[18] = after-effect of 45-day course 100 mg/kg, 1st day
[19] = after-effect of 45-day course 100 mg/kg, 2nd day
[20] = after-effect of 45-day course 100 mg/kg, 3rd day
[21] = rats, 4-month alcoholism, 100 mg/kg, 45th day of administration
[22] = 100 mg/kg after scopolamine-induced CRPA amnesia
[23] = NMDA hippocampus, 100 mg/kg single dose during scopolamine amnesia
[24] = nACh cortex, 100 mg/kg single dose during scopolamine amnesia
[25] = 5-HT2 frontal cortex, 100 mg/kg single dose during scopolamine amnesia

## NC(=O)CN1CC(c2ccccc2)CC1=O (racemic) [Compound 1, (RS)-2-(2-oxo-4-phenylpyrrolidine-1-yl)acetamide]
[1]; 0.031 ug/ml
  Mean number of MTB colonies: contiguous
[1]; 0.063 ug/ml
  Mean number of MTB colonies: contiguous
[1]; 0.125 ug/ml
  Mean number of MTB colonies: 107
[1]; 0.250 ug/ml
  Mean number of MTB colonies: 97
[1]; 0.310 ug/ml
  Mean number of MTB colonies: 83
[1]; 0.500 ug/ml
  Mean number of MTB colonies: 70
[1]; 0.630 ug/ml
  Mean number of MTB colonies: 65
[1]; 1.0 ug/ml
  Mean number of MTB colonies: 67
[1]; 1.25 ug/ml
  Mean number of MTB colonies: 74
[1]; 2.0 ug/ml
  Mean number of MTB colonies: 79
[1]; 5.0 ug/ml
  Mean number of MTB colonies: 90
[1]; 10.0 ug/ml
  Mean number of MTB colonies: 123
[1]; 50.0 ug/ml
  Mean number of MTB colonies: contiguous
[1]; 100 ug/ml
  Mean number of MTB colonies: contiguous
[1]; concentrations from 0.25 to 5.0 μg/ml
  number of MTB colonies: Less than 100
[2]; [10]
  Number of pulses for 3 min.: 126.0 ± 12.4
  Number of stand-ups for 3 min.: 15.9 ± 2.0
[2]; [11]
  Number of pulses for 3 min.: 129.2 ± 14.2
  Number of stand-ups for 3 min.: 24.2 ± 4.8
[2]; [12]
  Number of pulses for 3 min.: 48.1 ± 9.4
  Number of stand-ups for 3 min.: 12.1 ± 4.6
[2]; [13]
  increase of orientation and exploratory behavior, horizontal component, vs control: 240.0%
  increase of orientation and exploratory behavior, vertical component, vs control: 89.0%
[2]; single 300 mg/kg
  reduction of psychostimulant effect of Benzedrine, horizontal component: ~42.9%
  reduction of psychostimulant effect of Benzedrine, vertical component: 14.8%
[3]; August rats, 200 mg/kg single, no Ns
  Optical density of the samples vs control: +188.4 * %
[3]; August rats, 200 mg/kg, normal conditions
  km % vs outbred group: 0%
[3]; August rats, exposure to Ns
  increase of plasma MDA concentration vs baseline control: 2.2 times
  plasma MDA higher than with Phenotropil without Ns: 17.0%
[3]; [14]
  MDA content vs control: +223.0 * %
  Optical density of the samples vs control: +220.3 * %
[3]; August rats, three-time Ns + 200 mg/kg
  km % vs outbred group: +27.8% *
[3]; Wistar rats, 200 mg/kg single, no Ns
  Optical density of the samples vs control: +66.5 * %
[3]; Wistar rats, 200 mg/kg, normal conditions
  km % vs outbred group: 0%
[3]; Wistar rats, 200 mg/kg
  km % vs experimental control (saline): −65.6% and −65.6 *** %
[3]; Wistar rats, exposure to Ns
  reduction of MDA level vs baseline control without stress: 6.0%
[3]; [15]
  MDA content vs control: −6.0 * %
  Optical density of the samples vs control: −6.0 * %
[3]; Wistar rats, three-time Ns + 200 mg/kg
  km % vs outbred group: −33.3% *
[3]; outbred rats, 200 mg/kg
  km % vs experimental control (saline): −73.0% and −73.0 *** %
[3]; rats, during treatment
  increase of species reserve of stability (intra-species Kt) in acute Ns-state: 12.5%
[3]; single injection, no stress
  activation in August relative to Wistar strain: 2.9 times
[4]; single i.p. 10 mg/kg
  increase of cAMP level: 21%
[4]; single i.p. 50 mg/kg
  increase of cAMP level: 65.5%
[4]; single i.p. 100 mg/kg
  increase of cAMP level: 96.3%
[4]; 10 mg/kg
  cAMP level: 4.56 ± 0.67 pikomol/50 μl plasma
[4]; 50 mg/kg
  cAMP level: 6.24 ± 0.81 pikomol/50 μl plasma
[4]; 100 mg/kg
  cAMP level: 7.40 ± 0.62 pikomol/50 μl plasma
[5]; [16]
  Alcohol consumption: 4.8 ± 0.8 mL/day
  Alcohol consumption vs control: −58.6%
[5]; [17]
  Alcohol consumption: 2.4 ± 0.7 mL/day
  Alcohol consumption vs control: −74.0%
[5]; abstinent rats, 7-month alcoholism, 200 mg/kg, day 14
  Alcohol consumption: 0.0 ** ml/day
[5]; [18]
  Alcohol consumption: 3.3 ± 1.1 mL/day
  Water consumption: 26.7 ± 3.9 mL/day
[5]; [19]
  Alcohol consumption: 0.0 ** ml/day
  Water consumption: 20.2 ± 3.3 mL/day
[5]; [20]
  Alcohol consumption: 0.0 ** ml/day
  Water consumption: 21.2 ± 3.5 mL/day
[5]; [21]
  Alcohol consumption: 10.5 ± 4.2 mL/day
  Water consumption: 24.0 ± 5.9 mL/day
[6]
  Bmax change vs saline CRPA control: +4%
  Kd change vs saline CRPA control: −3.8%
  Kd change vs scopolamine amnesia group: +9.3%
[7]; [22]
  decrease in density of NMDA receptors vs scopolamine amnesia: 12%
[7]; [23]
  Bmax change vs saline CRPA control: +69%
  Bmax change vs scopolamine amnesia group: −12%
  Kd change vs saline CRPA control: +18.4%
  Kd change vs scopolamine amnesia group: +9.0%
[8]; [22]
  decrease in density of nACh receptors vs scopolamine amnesia: 46%
[8]; [24]
  Bmax change vs saline CRPA control: +6%
  Bmax change vs scopolamine amnesia group: −46%
  Kd change vs saline CRPA control: +39.5%
  Kd change vs scopolamine amnesia group: +14.4%
[9]; 5-HT2, subchronic 100 mg/kg/day, no pathology
  Bmax, percentage relative to control: −18%*
[9]; [25]
  Bmax change vs saline CRPA control: +31%
  Kd change vs saline CRPA control: +19.4%
  Kd change vs scopolamine amnesia group: +3.0%
[9]; subchronic 100 mg/kg, no pathology
  decrease of density (Bmax) of 5-HT2 receptors vs control: 18%
